Experimental data published in US10968214B2, “KRas G12C inhibitors” (Eli Lilly and Company, priority 2018, dated 2021).
Where two headings read alike, the source gives them in different places.

Columns and labels:
[1] = test system: phosphorylation of p-ERK1/2 in H358 cells; assay: H358 Cellular Phospho-ERK AlphaLISA; assay type: cell-based, Human; conditions: Homo sapiens, NCI-H358, 2 h
Description: This assay is used to measure the ability of test compounds to inhibit the phosphorylation of p-ERK1/2, a downstream effector of KRas in Human lung cancer cells H358 (ATCC CRL-5807). Briefly, the AlphaLISA® SureFire® Ultra™ p-ERK 1/2 (Thr202/Tyr204) assay is a sandwich immunoassay for quantitative detection of phospho-ERK 1/2 (phosphorylated on Thr202/Tyr204 in ERK1, or Thr185/Tyr187 in ERK2) in cellular lysates using Alpha Technology (Perkin Elmer Cat #ALSU-PERK-A50K).
H358 cells are plated at 40K cells per well in 100 μL media (RPMI 1640, GIBCO Cat #22400-071) containing 10% FBS (GIBCO Cat #: 10082-147) in a 96 well plate (Costar #3596) and are incubated overnight in humid trays at 37° C., 5% CO2. The next morning, 10 μL of serially-diluted (3-fold) test compounds (50 μM top concentration) and 10 uL of controls (Maximum signal wells: 5% DMSO and Minimum signal wells: 2 μM of N-(3-{3-cyclopropyl-5-[(2-fluoro-4-iodophenyl)amino]-6,8-dimethyl-2,4,7-trioxo-3,4,6,7-tetrahydropyrido[4,3-D]pyrimidin-1(2H)-yl}phenyl)acetamide (trametinib, as a positive control) are added to the cell plate and incubated for 2 hr in humid trays at 37° C./5% CO2. Lysis Buffer is prepared at RT containing a protease and phosphatase inhibitor cocktail. Culture medium is removed by inverting and shaking the cell plate in the sink and then blotting onto a paper towel. Lysis buffer is added to the cell plate (50 μL per well) and the plate is incubated at RT for 10 min on a shaker. For p-ERK detection, acceptor beads are diluted into a suspension mixture with buffer. Using a Starlett liquid handler, 5 μL of acceptor beads and 2 μL of cell lysate are transferred as a single-step in-tip dilution to a 384 well assay plate. The assay plate is sealed with foil and is incubated at RT for 2 hrs. Donor beads are diluted into a suspension mixture with buffer. Using the Starlet, 5 μL of donor beads are added to the assay plate that is then sealed, wrapped with foil. The plate is incubated at RT for 2 hrs in the dark. The assay plate is then read on an EnVision™ Plate Reader (Perkin Elmer) using a luminescence program.
The signal is converted to percent inhibition using the following equation: % Inhibition=100−[(Test Compound Signal−Median Minimum Signal)/(Median Maximum Signal−Median Min Signal)×100]. The Maximum signal is a control well without inhibitor.

H358 = assay: 3D H358 Cell Proliferation Assay; assay type: cell-based; conditions: Homo sapiens, NCI-H358; H358, 3D, 96 hr; read-out: relative IC50
Description: Human lung cancer cells, H358, (ATCC CRL-5807) are used to evaluate compound inhibition in a 3D proliferation assay. Signal reflecting cell proliferation is detected with the CellTiterGlo® 3D reagent (Promega G9683). The cells are grown in RPMI 1640 (GIBCO®) supplemented with 10% heat inactivated FBS and 0.1 mg/ml penicillin/streptomycin. H358 cells are cultured in the growth phase and five thousand cells per well are plated in a black well clear round bottom 96-well ultra-low attachment surface plate (Corning® Cat 4520) with 80 μl/well of culture media. Cells are incubated overnight at 37° C. in a humidity chamber. 20 μl/well of serially diluted test compound is added to the plate which is then incubated for 96 hr. Plates are brought to RT and an equal volume of RT CellTiterGlo® 3D reagent is added. Plates are shaken at 750 RPM for 10 min at RT After a 1 hr incubation at RT to stabilize the signal, the luminescent signal is measured on the EnVision™ plate reader. The signal is converted to percent inhibition using the following equation: % Inhibition=100−[(Test Compound Signal−Median Minimum Signal)/(Median Maximum Signal−Median Minimum Signal)×100]. The Max Signal is a control well without inhibitor.

Calu-1 = assay: CellTiterGlo Cell Proliferation Assay, Calu-1; assay type: cell-based; conditions: Homo sapiens, KRas G12C, Lung, 96 hr
Description: (§1) A panel of tumor cell lines harboring KRas G12C or other KRas mutations are collected (Table 6). All cell lines are from ATCC or other sources indicated.
(§2) Typically cells are cultured in RPMI1640 or Dulbecco's modified Eagle's medium (DMEM, GIBCO) supplemented with 10% FBS (GIBCO, Invitrogen). For 2D culture cells (4×10^3/well) maintained in growth medium described above, are plated onto 96 well tissue culture plates Corning® Cat. 3603) a day before the treatment. For 3D culture 8000 cells/well are seeded onto 96 well ultra-low attachment tissue culture plates (Corning, #3474). The cells are treated compound for 96 hr, and then are analyzed for viability using the CellTiterGlo® Luminescent Cell Viability Assay® (Promega #G7572 for 2D and Promega #G9683 for 3D cultures) according to manufacturer's instructions and an EnVision™ plate reader. Nonlinear regression and sigmoidal dose-response curves are used to calculate the half maximal inhibitory concentration (IC50) with GraphPad Prism 4® software.

H1373 = assay: CellTiterGlo Cell Proliferation Assay, H1373; assay type: cell-based; conditions: Homo sapiens, NCI-H1373, KRas G12C, Lung, 96 hr
Description: as §1, §2

UM-UC-3 = assay: CellTiterGlo Cell Proliferation Assay, UM-UC-3; assay type: cell-based; conditions: Homo sapiens, UMUC3, KRas G12C, Bladder, 96 hr
Description: as §1, §2

SW756 = assay: CellTiterGlo Cell Proliferation Assay, SW756; assay type: cell-based; conditions: Homo sapiens, KRas G12C, Cervix, 96 hr
Description: as §1, §2

Calu-6 = assay: CellTiterGlo Cell Proliferation Assay, Calu-6; assay type: cell-based; conditions: Homo sapiens, KRas Q61K, lung, 96 hr
Description: as §1, §2

H1975 = assay: CellTiterGlo Cell Proliferation Assay, H1975; assay type: cell-based; conditions: Homo sapiens, NCI-H1975, KRas wild type, lung, 96 hr
Description: as §1, §2

H2030 xenograft = assay: Anti-tumor growth activity, H2030 lung xenograft; assay type: in vivo; conditions: 28 Day, negative = regression
KYSE-410 xenograft = assay: Anti-tumor growth activity, KYSE-410 esophageal xenograft; assay type: in vivo; conditions: 28 Day, negative = regression
[2] = read-out: IC50 (μM) in 2 D cell proliferation
[3] = read-out: IC50 (μM) in 3 D spheroid cell proliferation

## C=CC(=O)N1CCN(c2ncnc3c(F)c(-c4ccc(F)c5sc(N)nc45)c(Cl)cc23)CC1 [Example 1, 1-{4-[7-(2-Amino-7-fluoro-1,3-benzothiazol-4-yl)-6-chloro-8-fluoroquinazolin-4-yl]piperazin-1-yl}prop-2-en-1-one]
[1]; read-out: pERK
  IC50: 0.00566 µM
[1]; read-out: relative IC50
  IC50: 0.0057 µM
H358
  IC50: < 0.0116 µM
Calu-1; [2]
  IC50: 0.024 µM
Calu-1; [3]
  IC50: 0.001 µM
H1373; [2]
  IC50: 0.209 µM
H1373; [3]
  IC50: 0.02 µM
UM-UC-3; [2]
  IC50: 0.124 µM
UM-UC-3; [3]
  IC50: 0.075 µM
SW756; [2]
  IC50: 1.15 µM
SW756; [3]
  IC50: 7.83 µM
Calu-6; [2]
  IC50: 12.1 µM
Calu-6; [3]
  IC50: 19.5 µM
H1975; [2]
  IC50: 18.7 µM
H1975; [3]
  IC50: 6.2 µM
H2030 xenograft; 15 mg/kg BID
  Tumor Growth Inhibition (%) or Regression (−%): 82%
H2030 xenograft; 30 mg/kg BID
  Tumor Growth Inhibition (%) or Regression (−%): 91.9%
H2030 xenograft; 30 mg/kg QD
  Tumor Growth Inhibition (%) or Regression (−%): 75.1%
KYSE-410 xenograft; 15 mg/kg BID
  Tumor Growth Inhibition (%) or Regression (−%): 21.2%
KYSE-410 xenograft; 30 mg/kg BID
  Tumor Growth Inhibition (%) or Regression (−%): −9%
KYSE-410 xenograft; 30 mg/kg QD
  Tumor Growth Inhibition (%) or Regression (−%): 74.5%
